Assay results reported in ChEMBL document CHEMBL4715739, “7,7-Dimethylaporphine and Other Alkaloids from the Bark of Guatteria friesiana” (J Nat Prod, 2016).

What was measured:
[1] = Cytotoxicity against human PBMC cells assessed as reduction in cell viability incubated for 72 hrs by Alamar blue assay; assay type: cell-based
HepG2 = assay: Cytotoxicity against human HepG2 cells assessed as reduction in cell viability incubated for 72 hrs by Alamar blue assay; assay type: functional, cell-based; conditions: HepG2, 72 h
B16-F10 = assay: Cytotoxicity against mouse B16-F10 cells assessed as reduction in cell viability incubated for 72 hrs by Alamar blue assay; assay type: functional, cell-based; conditions: B16-F10, 72 h
HL-60 = assay: Cytotoxicity against human HL-60 cells assessed as reduction in cell viability incubated for 72 hrs by Alamar blue assay; assay type: functional, cell-based; conditions: HL-60, 72 h
K562 = assay: Cytotoxicity against human K562 cells assessed as reduction in cell viability incubated for 72 hrs by Alamar blue assay; assay type: functional, cell-based; conditions: K562, 72 h

| Structure (SMILES) | IC50 [1] | IC50 (HepG2) | IC50 (B16-F10) | IC50 (HL-60) | IC50 (K562) |
| --- | --- | --- | --- | --- | --- |
| O=C1c2ccccc2-c2c3c(cc4ccnc1c24)OCO3 [LIRIODENINE] | 34.8 µM | 8.3 µM | > 10 µM | 5.5 µM | 5 µM |
| COc1cccc2c1C(=O)c1c(O)c3c(c(O)c1C2=O)C[C@@](O)(C(=O)CO)C[C@@H]3O[C@H]1C[C@H](N)[C@H](O)[C@H](C)O1 [DOXORUBICIN] |  | 0.2 µM | 2.3 µM | 0.8 µM | 0.7 µM |
